Data: patent US20240368134A1, “AROMATIC COMPOUND, PHARMACEUTICAL COMPOSITION, AND APPLICATION THEREOF” (SHANGHAI KYGENT PHARMACEUTICAL CO., LTD, priority 2021, published 2024)

Assays:
MSTO-211H cells = experiment: Tumor cell proliferation inhibition experiment (Cell Titer Glo), MSTO-211H; assay type: cell-based; conditions: Homo sapiens, 72 h, MSTO-211H lung cancer cells, three days incubation
Protocol: (§1) Cell Titer Glo luminescent cell viability assay kit was used to quantify the ATP content in cells, so as to quantify the number of viable cells. […] On the second day, the compound was added to the 96-well plate after a three-fold serial dilution to eight concentrations, and incubated at 37° C. for three days in the 5% carbon dioxide incubator. The culture medium was treated with the addition of Cell Titer Glo luminescent cell viability assay kit (Promega G7570) reagent, incubated for 10 minutes, and then placed in Envision (Pelkin Elmer) to read the luminescence signal. DMSO was used instead of the compound as a control to calculate the inhibition rate (inhibition rate %=(1−compound signal/DMSO signal)*100), and then standard four parameter curve fitting was used to calculate the inhibitory activity IC50.

NCI-H2052 cells = experiment: Tumor cell proliferation inhibition experiment (Cell Titer Glo), NCI-H2052; assay type: cell-based; conditions: Homo sapiens, 72 h, NCI-H2052 lung cancer cells, three days incubation
Protocol: as §1

Row | Structure (SMILES) | IC50 (MSTO-211H cells) [nM] | IC50 (NCI-H2052 cells) [nM]
1 | C[C@H]1c2c(cc(F)c(Cl)c2-c2c(C(N)=O)cc3c(c2F)C2CC2O3)O[C@]1(CN[C@H]1CC[C@](C)(O)CC1)c1ccccc1 (stereo partly drawn) [Compound 27a] | 100 | 210
2 | CNC(=O)c1cc2c(c(F)c1-c1c(Cl)c(F)cc3c1C[C@@](CN[C@H]1CC[C@](C)(O)CC1)(c1ccccc1)O3)[C@H]1C[C@H]1O2 [Compound 14a1] | 220 | 290
3 | CNC(=O)c1cc2c(c(F)c1-c1c(Cl)c(F)cc3c1[C@H](C)[C@@](CN[C@H]1CC[C@](C)(O)CC1)(c1ccccc1)O3)C1CC1O2 (stereo partly drawn) [Compound 25a] | 150 | 260
4 | CNC(=O)c1cnc(OCCO)c(F)c1-c1c(C#N)c(F)cc2c1C[C@](c1ccccc1)([C@@H]1CCCN1)O2 [Compound 12a] | > 10000 | > 10000
5 | CNC(=O)c1cc2c(c(F)c1-c1c(Cl)c(F)cc3c1C[C@](c1ccccc1)([C@@H]1CCCN1)O3)CC(=O)C2 [Compound 65a] | > 10000 | > 10000
6 | C#Cc1c(OCCO)ncc(C(=O)NC)c1-c1c(Cl)c(F)cc2c1C[C@](c1ccccc1)([C@@H]1CCCN1)O2 [Compound 9a] | > 10000 | 7970
7 | CNC(=O)c1cc2c(c(F)c1-c1c(Cl)c(F)cc3c1C[C@@](CN[C@H]1CC[C@](C)(O)CC1)(c1ccccc1)O3)CCC2 [Compound 30a] | 300 | 550
8 | CNC(=O)c1cc2c(c(F)c1-c1c(Cl)c(F)cc3c1C[C@@](CN[C@H]1CC[C@](C)(O)CC1)(c1ccccc1)O3)CCC2O (stereo partly drawn) [Compound 42a] | 730 | 900
9 | CNC(=O)c1cc2c(c(F)c1-c1c(Cl)c(F)cc3c1C[C@](c1ccccc1)([C@@H]1CCCN1)O3)CC(O)C2 (stereo partly drawn) [Compound 49a] | 150 | 240
10 | CNC(=O)c1cnc(OCCO)c(O)c1-c1c(Cl)c(F)cc2c1C[C@](c1ccccc1)([C@@H]1CCCN1)O2 [Compound 6a] | > 10000 | > 10000
11 | CNC(=O)c1cc2c(c(F)c1-c1c(Cl)c(F)cc3c1C[C@](c1ccccc1)([C@@H]1CCCN1)O3)N1C[C@@H](F)CC1CO2 (stereo partly drawn) [Compound 5a] | 1940 | 3140
12 | CNC(=O)c1cc2c(c(F)c1-c1c(Cl)c(F)cc3c1C[C@](c1ccccc1)([C@@H]1CCCN1)O3)CCC2(F)F [Compound 36a] | 450 | 650
13 | CNC(=O)c1cc2c(c(F)c1-c1c(Cl)c(F)cc3c1C[C@@](CN[C@H]1CC[C@](C)(O)CC1)(c1ccccc1)O3)CC(O)C2 (stereo partly drawn) [Compound 80a] | 490 | 580
14 | CNC(=O)c1cc2c(c(F)c1-c1c(Cl)c(F)cc3c1C[C@](c1ccccc1)([C@@H]1CCC(=O)N1)O3)C1CC1O2 (stereo partly drawn) [Compound 20a] | > 10000 | > 10000
15 | CNC(=O)c1cc2c(c(F)c1-c1c(Cl)c(F)cc3c1C[C@](c1ccccc1)([C@@H]1CCCN1)O3)CCC2F (stereo partly drawn) [Compound 43a] | 440 | 500
16 | CNC(=O)c1cnc(OCCO)c(F)c1-c1c(Cl)c(F)cc2c1C[C@](c1ccccc1)(c1ccn[nH]1)O2 [Compound 11a] | > 10000 | > 10000
17 | C[C@]1(O)CC[C@H](NC[C@@]2(c3ccccc3)Cc3c(cc(F)c(Cl)c3-c3c(C(N)=O)cc4c(c3F)C3CC3O4)O2)CC1 (stereo partly drawn) [Compound 23a] | 110 | 200
18 | CNC(=O)c1cc2c(c(F)c1-c1c(Cl)c(F)cc3c1C[C@](c1ccccc1)([C@@H]1CCCN1)O3)N1CCCC1CO2 (stereo partly drawn) [Compound 3a] | 976 | 1870
19 | CNC(=O)c1cc2c(c(F)c1-c1c(Cl)c(F)cc3c1C[C@@](CN[C@H]1CC[C@](C)(O)CC1)(c1ccccc1)O3)[C@@H]1C[C@@H]1O2 (single isomer, unassigned) [Compound 14a2] | 390 | 590
20 | CNC(=O)c1cc2c(c(F)c1-c1c(Cl)c(F)cc3c1C[C@](c1ccccc1)([C@@H]1CCCN1)O3)CCC2=O [Compound 40a] | 490 | 600
21 | CNC(=O)c1cnc(OCCO)c(OC)c1-c1c(Cl)c(F)cc2c1C[C@](c1ccccc1)([C@@H]1CCCN1)O2 [Compound 7a] | 9800 | 9080
